Source: the supplement of paper PMC10307832

Compound: C/C(=N\NC(=S)N1CCC1)/C2=CC=CC=N2
Experiment: relative viability (nuclei count vs DMSO), 5 days (fraction); higher = more cells survive
In short: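 Viability is treated-well nuclei as a fraction of vehicle-well nuclei, reported as the median across plates. Before counting, lung cancer cell lines were kept overnight at 37 °C in 1536-well plates, pinned with five √10-spaced library-drug doses on vehicle-anchored plates, and left 5 days without medium change, then fixed, permeabilised and Hoechst-stained in one step, imaged at 4× and counted by MetaXpress. A plate passed only if control CV was below 25% and at least one doubling occurred.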

| Cell Line | relative viability (0.05 µM) | relative viability (0.1581 µM) | relative viability (0.5 µM) | relative viability (1.581 µM) | relative viability (5 µM) |
| --- | --- | --- | --- | --- | --- |
| COR-L 105 | 0.287 | 0.364 | 0.342 | 0.245 | 0.292 |
| LK-2 | 0.172 | 0.182 | 0.18 | 0.14 | 0.176 |
| NCI-H727 | 0.25 | 0.235 | 0.245 | 0.27 | 0.272 |
| RERF-LC-KJ | 0.263 | 0.262 | 0.252 | 0.244 | 0.248 |
| NCI-H2023 | 0.0831 | 0.0809 | 0.0814 | 0.0675 | 0.0747 |
| NCI-H322M | 0.337 | 0.337 | 0.352 | 0.329 | 0.35 |
| NCI-H1666 | 0.433 | 0.404 | 0.369 | 0.349 | 0.329 |
| NCI-H1648 | 0.317 | 0.278 | 0.25 | 0.317 | 0.304 |
| NCI-H2087 | 0.16 | 0.218 | 0.19 | 0.165 | 0.138 |
| LU99A | 0.161 | 0.209 | 0.162 | 0.145 | 0.182 |
| HCC-366 | 0.0382 | 0.0453 | 0.0381 | 0.0627 | 0.0401 |
| EKVX | 0.129 | 0.138 | 0.118 | 0.153 | 0.161 |
| NCI-H522 | 0.334 | 0.389 | 0.351 | 0.346 | 0.358 |
| NCI-H1755 | 0.353 | 0.332 | 0.321 | 0.303 | 0.282 |
| NCI-H647 | 0.114 | 0.116 | 0.136 | 0.115 | 0.0991 |
| LC-2-ad | 0.209 | 0.242 | 0.217 | 0.163 | 0.231 |
| NCI-H1793 | 0.181 | 0.215 | 0.176 | 0.16 | 0.168 |
| HCC-827 | 0.44 | 0.359 | 0.316 | 0.275 | 0.205 |
| HCC-78 | 0.459 | 0.472 | 0.355 | 0.232 | 0.234 |
| NCI-H2085 | 0.359 | 0.321 | 0.357 | 0.299 | 0.313 |
| PC-14 | 0.0727 | 0.104 | 0.0714 | 0.0553 | 0.064 |
| NCI-H2342 | 0.274 | 0.277 | 0.266 | 0.239 | 0.259 |
| A-427 | 0.16 | 0.173 | 0.15 | 0.144 | 0.156 |
| H3255 | 0.316 | 0.331 | 0.273 | 0.254 | 0.274 |
| HCC-44 | 0.351 | 0.279 | 0.299 | 0.246 | 0.24 |
| NCI-H1734 | 0.184 | 0.186 | 0.189 | 0.13 | 0.116 |

| Cell Line | relative viability (0.05 µM) | relative viability (0.1581 µM) | relative viability (0.5 µM) | relative viability (1.581 µM) | relative viability (5 µM) |
| --- | --- | --- | --- | --- | --- |
| NCI-H2228 | 0.192 | 0.217 | 0.21 | 0.118 | 0.187 |
| ABC-1 | 0.38 | 0.303 | 0.245 | 0.259 | 0.361 |
| COR-L23 | 0.148 | 0.133 | 0.138 | 0.113 | 0.102 |
| NCI-H661 | 0.288 | 0.32 | 0.317 | 0.255 | 0.262 |
| NCI-H1993 | 0.472 | 0.529 | 0.593 | 0.499 | 0.577 |
| NCI-H1437 | 0.242 | 0.235 | 0.206 | 0.173 | 0.155 |
| UMC-11 | 0.262 | 0.241 | 0.23 | 0.193 | 0.175 |
| 201T | 0.432 | 0.443 | 0.353 | 0.345 | 0.309 |
| NCI-H358 | 0.132 | 0.125 | 0.143 | 0.119 | 0.114 |
| ChaGo-K-1 | 0.204 | 0.227 | 0.2 | 0.18 | 0.186 |
| NCI-H1650 | 0.18 | 0.26 | 0.183 | 0.173 | 0.199 |
| LOU-NH91 | 0.5 | 0.572 | 0.553 | 0.42 | 0.464 |
| HOP-62 | 0.111 | 0.0963 | 0.114 | 0.11 | 0.114 |
| NCI-H1915 | 0.237 | 0.216 | 0.199 | 0.179 | 0.178 |
| NCI-H3122 | 0.13 | 0.121 | 0.129 | 0.168 | 0.141 |
| NCI-H1651 | 0.19 | 0.175 | 0.152 | 0.11 | 0.105 |
| EBC-1 | 0.169 | 0.214 | 0.169 | 0.127 | 0.154 |
| NCI-H838 | 0.247 | 0.255 | 0.279 | 0.179 | 0.185 |
| NCI-H596 | 0.307 | 0.311 | 0.257 | 0.222 | 0.263 |
| SK-LU-1 | 0.24 | 0.233 | 0.25 | 0.168 | 0.208 |
| NCI-H441 | 0.233 | 0.175 | 0.185 | 0.145 | 0.123 |
| NCI-H650 | 0.22 | 0.232 | 0.222 | 0.196 | 0.175 |
| SK-MES-1 | 0.197 | 0.231 | 0.192 | 0.171 | 0.19 |
| NCI-H1792 | 0.362 | 0.234 | 0.227 | 0.184 | 0.134 |
| NCI-H1355 | 0.204 | 0.216 | 0.21 | 0.197 | 0.214 |
| SW 1573 | 0.119 | 0.115 | 0.143 | 0.102 | 0.0766 |

| Cell Line | relative viability (0.05 µM) | relative viability (0.1581 µM) | relative viability (0.5 µM) | relative viability (1.581 µM) | relative viability (5 µM) |
| --- | --- | --- | --- | --- | --- |
| A549 | 0.0587 | 0.0516 | 0.0603 | 0.0557 | 0.0345 |
| NCI-H2347 | 0.315 | 0.346 | 0.34 | 0.256 | 0.313 |
| LCLC-97TM1 | 0.0886 | 0.109 | 0.0593 | 0.0801 | 0.0822 |
| EMC-BAC-2 | 0.215 | 0.237 | 0.219 | 0.189 | 0.207 |
| NCI-H1975 | 0.178 | 0.179 | 0.168 | 0.158 | 0.185 |
| BEN | 0.278 | 0.237 | 0.276 | 0.23 | 0.227 |
| NCI-H1703 | 0.0684 | 0.0887 | 0.112 | 0.126 | 0.161 |
| NCI-H23 | 0.17 | 0.196 | 0.187 | 0.154 | 0.172 |
| NCI-H520 | 0.164 | 0.17 | 0.141 | 0.16 | 0.172 |
| CAL-12T | 0.197 | 0.181 | 0.16 | 0.149 | 0.133 |
| EPLC-272H | 0.163 | 0.161 | 0.124 | 0.0926 | 0.136 |
| LCLC-103H | 0.336 | 0.331 | 0.347 | 0.335 | 0.357 |
| NCI-H2405 | 0.294 | 0.296 | 0.288 | 0.274 | 0.283 |
| HCC-15 | 0.0583 | 0.0886 | 0.0939 | 0.094 | 0.0906 |
| PC-3 [JPC-3] | 0.473 | 0.459 | 0.358 | 0.309 | 0.231 |
| NCI-H1944 | 0.263 | 0.179 | 0.19 | 0.161 | 0.151 |
| HARA | 0.193 | 0.21 | 0.138 | 0.143 | 0.138 |
| NCI-H1563 | 0.62 | 0.6 | 0.504 | 0.538 | 0.522 |
| NCI-H2126 | 0.236 | 0.246 | 0.214 | 0.197 | 0.21 |
| LXF-289 | 0.276 | 0.313 | 0.278 | 0.292 | 0.119 |
| NCI-H460 | 0.0678 | 0.0619 | 0.0798 | 0.0529 | 0.0177 |
| NCI-H1395 | 0.423 | 0.41 | 0.336 | 0.344 | 0.383 |
| NCI-H2170 | 0.391 | 0.282 | 0.268 | 0.198 | 0.176 |
| NCI-H2009 | 0.122 | 0.17 | 0.166 | 0.156 | 0.138 |
